5 compounds from patent US12048309B2, “Materials and methods for preventing and dispersing exopolysaccharide-containing biofilms involving Listeria monocytogenes” (University of Wyoming, priority 2021, dated 2024) can be followed below.

This assay relates to EPS-biofilm formation by L. monocytogenes. Kind of assay: Test of major ingredients of red maple (Acer rubrum) methanol extract for preventing EPS-biofilm formation. In kind it is cell-based, Listeria monocytogenes. The settings on record: ingredients of methanol extract of dried red maple stems. The protocol: To identify active components responsible for preventing EPS-biofilm formation by L. monocytogenes, major ingredients from methanol extract of dried red maple stems, Acer rubrum, were tested. The tested compositions included catechin, epicatechin, procyanidin A2, epicatechin gallate, nortrachelogenin (also known as pinopalustrin), and nortrachelogenin 8′-O-β-D-glucopyranoside (also known as nortrachelogenin-8′-O-beta-glucoside).
Other major ingredients of the maple methanol extract, including catechin, epicatechin, procyanidin A2, and epicatechin gallate had no effect.
Turning to `O=C(O[C@@H]1Cc2c(O)cc(O)cc2O[C@@H]1c1ccc(O)c(O)c1)c1cc(O)c(O)c(O)c1` [epicatechin gallate], the antibiofilm activity result was “no effect”.
In the case of `Oc1cc(O)c2c(c1)O[C@H](c1ccc(O)c(O)c1)[C@H](O)C2` [epicatechin], the antibiofilm activity result is given as “no effect”.
Take `COc1cc(CC2COC(=O)C2(O)Cc2ccc(O)c(OC)c2)ccc1O` (centres unmarked) [nortrachelogenin]: the antibiofilm activity entry is on record as “no significant antibiofilm activity”.
Regarding `Oc1cc(O)c2c(c1)O[C@@]1(c3ccc(O)c(O)c3)Oc3cc(O)c4c(c3[C@@H]2[C@H]1O)O[C@H](c1ccc(O)c(O)c1)[C@H](O)C4` [procyanidin A2], the antibiofilm activity entry is reported as “no effect”.
Then catechin, with “no effect”.
